Where two headings read alike, the source gives them in different places.
Tests used:
TAAR5 [1] = molecular target: T1, TAAR5 (Homo sapiens, UniProt O14804); experiment: Antagonist screen of odor library on TAAR5 with agonist TMA (Dual-Glo luciferase assay, Hana3A cells); format: cell-based; parameters: TAAR open reading frames were amplified from pooled human genomic DNA using Phusion polymerase and subcloned into a pCI expression vector; Rho tag (first 20 residues of human rhodopsin); expressed in transfected cells; host or cells: Hana3A cells; conditions: for inhibition at 30 µM: read-out: Percent Inhibition
T1 sequence (O14804 1-337): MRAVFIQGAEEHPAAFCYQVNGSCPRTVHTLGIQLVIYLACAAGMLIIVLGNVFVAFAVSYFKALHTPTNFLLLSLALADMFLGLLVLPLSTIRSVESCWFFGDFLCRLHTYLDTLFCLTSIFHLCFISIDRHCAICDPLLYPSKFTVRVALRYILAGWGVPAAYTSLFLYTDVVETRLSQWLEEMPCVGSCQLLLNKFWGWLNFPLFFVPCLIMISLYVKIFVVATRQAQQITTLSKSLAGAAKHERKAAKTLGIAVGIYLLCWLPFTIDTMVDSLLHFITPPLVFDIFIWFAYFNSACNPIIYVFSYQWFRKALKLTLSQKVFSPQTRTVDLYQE
Description: We screened a TAAR of interest, TAAR5, with the agonist TMA added at the EC80 concentration, against a proprietary small-molecule library to identify antagonists. TAAR open reading frames were amplified from pooled human genomic DNA using Phusion polymerase and subcloned into a pCI expression vector (Promega) containing the first 20 residues of human rhodopsin (Rho tag). […] Hana3A cells were transfected with 5 ng/well of RTP1S, 5 ng/well of pRL-SV40, 10 ng/well of CRE-luciferase, 2.5 ng/well of M3, and 5 ng/well of odorant receptor. 1M odorant stocks were diluted in DMSO. 24 hours following transfection, transfection media was removed and replaced with the appropriate concentration of odor diluted from the 1M stocks in CD293 (Gibco). Four hours following odor stimulation luminescence was measured using a Synergy 2 plate reader (Biotek). All luminescence values were divided by the Renilla Luciferase activity to control for transfection efficiency in a given well.
We completed an antagonist screen of a proprietary library of odors, including the 52 odorous compounds identified in FIG. 4 at a concentration of 30 μM.

TAAR5 [2] = molecular target: T1, TAAR5; experiment: Dose responses on TAAR5 in luciferase assay (antagonist dose-dependent inhibition with TMA at EC80; TMA dose response with antagonist at IC10, IC30, IC50); format: cell-based; parameters: TAAR open reading frames were amplified from pooled human genomic DNA using Phusion polymerase and subcloned into a pCI expression vector; Rho tag (first 20 residues of human rhodopsin); expressed in transfected cells; host or cells: Hana3A cells; conditions: for IC10 concentration of antagonist: lowest of the three concentrations in FIG. 2; for IC30 concentration of antagonist: middle of the three concentrations in FIG. 2
Text: We screened a TAAR of interest, TAAR5, with the agonist TMA added at the EC80 concentration, against a proprietary small-molecule library to identify antagonists. TAAR open reading frames were amplified from pooled human genomic DNA using Phusion polymerase and subcloned into a pCI expression vector (Promega) containing the first 20 residues of human rhodopsin (Rho tag). The sequences of the cloned receptors were verified by sequencing (3730xl Sequencer, ABI Biosystems). We used the Dual-Glo™ Luciferase Assay System (Promega) to measure receptor responses as previously described in Trimmer, C. et al 2014 High-throughput Analysis of Mammalian Olfactory Receptors: Measurement of Receptor Activation via Luciferase Activity. Journal of Visualized Experiments, (88). doi:10.3791/51640. Hana3A cells were transfected with 5 ng/well of RTP1S, 5 ng/well of pRL-SV40, 10 ng/well of CRE-luciferase, 2.5 ng/well of M3, and 5 ng/well of odorant receptor. 1M odorant stocks were diluted in DMSO. 24 hours following transfection, transfection media was removed and replaced with the appropriate concentration of odor diluted from the 1M stocks in CD293 (Gibco). Four hours following odor stimulation luminescence was measured using a Synergy 2 plate reader (Biotek). All luminescence values were divided by the Renilla Luciferase activity to control for transfection efficiency in a given well.
In a secondary experiment, we ran dose dependent inhibition responses for the top twelve antagonists, i.e., the top 12 compounds identified in FIG. 4. TMA was kept at the EC80 (500 μM) and the twelve antagonists were diluted in a dose response with the highest concentration at 1000 μM. The top five candidate compounds, i.e., phenethyl benzoate, trans-2-nonen-1-ol, isoeugenyl phenlacetate, tributyl-2-acetylcitrate, bis(2-methyl-3-furyl)disulfide, were rescreened using an antagonist dose response at 2500 μM. We determined the IC80 values for those five antagonists. Using those IC80 values, we completed a 3-fold dilution dose response of TMA, starting at 3000 μM, in the presence of our five candidate antagonists. […] It was difficult to determine if the five antagonists were competitive or non-competitive inhibitors using the very high IC80 concentrations of the antagonists.
In another experiment, we evaluated dose responses of TMA in the presence of the antagonist at their IC10, IC30 and IC50 concentrations.

[3] = tested on: human perception of TMA odor ("fishy"); experiment: Human perceptual ratings of fishiness of TMA with antagonist or control odor (air-dilution olfactometer); format: in vivo; conditions: human subjects, TMA 3 mM, 1 mM, 0.33 mM, odors intensity-balanced to 1 mM TMA
Description: We evaluated the efficacy of the in vitro antagonists on human perception. We asked 10 (FIG. 5A) or 29 (FIG. 5B) subjects to rate how “fishy” and how “pleasant” an odor was. The odors were delivered to the subject using an air-dilution olfactometer (Lundström, J. N., et al., 2010 International Journal of Psychophysiology, 78(2), 179-189; doi:10.1016/j.ijpsycho.2010.07.007) and each trial consisted of one concentration of trimethylamine (either 3 mM, 1 mM, 0.33 mM, or a water blank) combined with either an antagonist or a solvent blank. Subjects used a general labeled magnitude scale to rate how “fishy” the odor smelled and a scale from −10 to +10 to rate the pleasantness.
The antagonists and control odors were intensity-balanced to match the 1 mM concentration of TMA. Trans-2-nonen-1-ol was diluted in Diethyl phthalate (DEP); TMA was diluted in water with NaOH added; Linalool was diluted in DEP. In all trials subjects received air from jars containing water and DEP so that solvent presence could not be used as a cue to the presence of the test odor.

[4] = inhibition of TMA/TAAR5 response, test odor at 30 μM, TMA at EC80
[5] = TAAR5 luciferase, vs TMA, highest of the three concentrations in FIG. 2, read-out: IC50 concentration of antagonist

O=C(Cc1ccccc1)Cc1ccccc1 [1,3-Diphenyl-2-propanone]
inhibition at 30 µM (TAAR5 [1]; [4]): 73.1%

CCCCCCCCCCCCCCO [1-Tetradecanol]
inhibition at 30 µM (TAAR5 [1]; [4]): 54.1%

OC1CSC(O)CS1 (stereo not drawn) [2,5-Dihydroxy-1,4-dithiane]
inhibition at 30 µM (TAAR5 [1]; [4]): 67.9%

CC(C=O)Cc1ccc2c(c1)OCO2 (stereo not drawn) [2-Methyl-3-(3,4-methylenedioxyphenyl)-propanal]
inhibition at 30 µM (TAAR5 [1]; [4]): 50.1%

C/C=C(\C=O)c1ccccc1 [2-Phenyl-2-butenal]
inhibition at 30 µM (TAAR5 [1]; [4]): 68.9%

CCCCCCC/C=C/C=O [2-decenal]
inhibition at 30 µM (TAAR5 [1]; [4]): 66.4%

CC(C)CCCC(C)CCO (stereo not drawn) [3,7-Dimethyl-1-octanol]
inhibition at 30 µM (TAAR5 [1]; [4]): 57.1%

CSCCC=O [3-(Methylthio)propionaldehyde]
inhibition at 30 µM (TAAR5 [1]; [4]): 54.5%

CCCCCC/C=C/C(C)=O [3-Decen-2-one]
inhibition at 30 µM (TAAR5 [1]; [4]): 72.5%

C=CCN=C=S [Allyl isothiocyanate]
inhibition at 30 µM (TAAR5 [1]; [4]): 77.4%

CCCCCC(C=O)=Cc1ccccc1 [Alpha-Amylcinnamaldehyde]
inhibition at 30 µM (TAAR5 [1]; [4]): 75.8%

C[C@@]12C=CC[C@H]1[C@@H]1CCC3=CC(=O)CC[C@]3(C)[C@H]1CC2 [Androstadienone, Androsta-4,16-dien-3-one]
inhibition at 30 µM (TAAR5 [1]; [4]): 76%

O=C(OCc1ccccc1)c1ccccc1 [Benzyl benzoate]
inhibition at 30 µM (TAAR5 [1]; [4]): 83.9%

c1ccc(CSSCc2ccccc2)cc1 [Benzyl disulfide]
inhibition at 30 µM (TAAR5 [1]; [4]): 81%

SCc1ccccc1 [Benzyl mercaptan]
inhibition at 30 µM (TAAR5 [1]; [4]): 75.8%

O=C(Cc1ccccc1)OCc1ccccc1 [Benzyl phenylacetate]
inhibition at 30 µM (TAAR5 [1]; [4]): 72.7%

O=C(OCc1ccccc1)c1ccccc1O [Benzyl salicylate]
inhibition at 30 µM (TAAR5 [1]; [4]): 74.2%

Cc1occc1SSc1ccoc1C [Bis(2-Methyl-3-furyl) disulfide]
inhibition at 30 µM (TAAR5 [1]; [4]): 88.3% | IC50 (TAAR5 [2]; [5]): 158 µM | IC10 concentration of antagonist (TAAR5 [2]; TAAR5 luciferase, vs TMA): 31.62 µM | IC30 concentration of antagonist (TAAR5 [2]; TAAR5 luciferase, vs TMA): 77.62 µM

Cc1ccc(C(C)C)cc1O [Carvacrol]
inhibition at 30 µM (TAAR5 [1]; [4]): 52.2%

O=CC1CCCCCC1 [Cycloheptanecarbaldehyde]
inhibition at 30 µM (TAAR5 [1]; [4]): 64.4%

CC1COCc2cc3c(cc21)C(C)(C)C(C)C3(C)C (stereo not drawn) [Galaxolide]
inhibition at 30 µM (TAAR5 [1]; [4]): 71.2%

CCCCCC=O [Hexanal]
inhibition at 30 µM (TAAR5 [1]; [4]): 69.4%

O=C1CCCCCCC/C=C/CCCCCCO1 [Isoambrettolide]
inhibition at 30 µM (TAAR5 [1]; [4]): 78.7%

CC(C)COC(=O)c1ccccc1 [Isobutyl benzoate]
inhibition at 30 µM (TAAR5 [1]; [4]): 63.3%

C/C=C/c1ccc(OC(=O)Cc2ccccc2)c(OC)c1 [Isoeugenyl phenylacetate]
inhibition at 30 µM (TAAR5 [1]; [4]): 89.1% | IC50 (TAAR5 [2]): 703 µM | IC10 concentration of antagonist (TAAR5 [2]; TAAR5 luciferase, vs TMA): 100 µM | IC30 concentration of antagonist (TAAR5 [2]; TAAR5 luciferase, vs TMA): 316.22 µM | effect on perceived fishy rating of TMA ([3]; listed as Isoeugenyl Phenylacetate): showed a similar pattern | effect on perceived fishy rating of TMA ([3]; listed as isoeugenyl phenylacetate): decreases fishy intensity

CCCCCCCCCCCC(=O)O [Lauric acid]
inhibition at 30 µM (TAAR5 [1]; [4]): 86%

COc1ccc2cc(CCC(C)=O)ccc2c1 [Nabumetone]
inhibition at 30 µM (TAAR5 [1]; [4]): 73.8%

O=C(OCCc1ccccc1)c1ccco1 [Phenethyl 2-furoate]
inhibition at 30 µM (TAAR5 [1]; [4]): 59.6%

Nc1ccccc1C(=O)OCCc1ccccc1 [Phenethyl anthranilate]
inhibition at 30 µM (TAAR5 [1]; [4]): 92.8%

O=C(OCCc1ccccc1)c1ccccc1 [Phenethyl benzoate]
inhibition at 30 µM (TAAR5 [1]; [4]): 93.5% | IC50 (TAAR5 [2]; [5]): 479 µM | IC10 concentration of antagonist (TAAR5 [2]; TAAR5 luciferase, vs TMA): 50.11 µM | IC30 concentration of antagonist (TAAR5 [2]; TAAR5 luciferase, vs TMA): 251.19 µM

O=C(Cc1ccccc1)OCCc1ccccc1 [Phenethyl phenylacetate]
inhibition at 30 µM (TAAR5 [1]; [4]): 88.9%

O=C(OCCc1ccccc1)c1ccccc1O [Phenethyl salicylate]
inhibition at 30 µM (TAAR5 [1]; [4]): 85%

O=C1CCCCCCCCCCCCCCO1 [Thibetolide]
inhibition at 30 µM (TAAR5 [1]; [4]): 81%

CC/C=C/CC/C=C/C=O [Trans, trans-2,6-Nonadienal]
inhibition at 30 µM (TAAR5 [1]; [4]): 71.4%

COC(=O)c1ccccc1/N=C/CC(C)CCCC(C)(C)O (stereo not drawn) [aurantiol]
inhibition at 30 µM (TAAR5 [1]; [4]): 79.6%

OCc1ccccc1 [benzyl alcohol]
inhibition at 30 µM (TAAR5 [1]; [4]): 62.5%

CC/C=C\CCC=O [cis-4-Heptenal]
inhibition at 30 µM (TAAR5 [1]; [4]): 61.5%

CCc1occc(=O)c1O [ethyl maltol, 2-Ethyl-3-hydroxy-4H-pyran-4-one]
inhibition at 30 µM (TAAR5 [1]; [4]): 72.5%

CC(C)=CCC/C(C)=C/CO [geraniol]
inhibition at 30 µM (TAAR5 [1]; [4]): 81.3%

CC(=O)C1(C)CC2=C(CCCC2(C)C)CC1C (stereo not drawn) [iso E super, isocyclemone E]
inhibition at 30 µM (TAAR5 [1]; [4]): 69.6%

C=CC(C)(O)CCC=C(C)C (stereo not drawn) [linalool, reference compound]
in vitro antagonism (TAAR5 [1]; hTAAR5): did not show in vitro antagonism | effect on perceived fishy rating of TMA [3]: no effect on these fishy ratings | effect on perceived fishy rating of TMA ([3]; listed as Linalool): does not

CCCCCCCCCCCCCC(=O)O [myristic acid]
inhibition at 30 µM (TAAR5 [1]; [4]): 59.1%

O=C1CCCC=CCCCCCCCCCC1 [velvione, 5-Cyclohexadecen-1-one]
inhibition at 30 µM (TAAR5 [1]; [4]): 76%

Tributyl-2-Acetylcitrate
Percent Inhibition (TAAR5 [1]; [4]): 87.83% | IC50 (TAAR5 [2]; [5]): 242 µM | IC10 concentration of antagonist (TAAR5 [2]; TAAR5 luciferase, vs TMA): 74.14 µM | IC30 concentration of antagonist (TAAR5 [2]; TAAR5 luciferase, vs TMA): 194.98 µM

Source: patent publication US20180021467A1, “METHOD OF BLOCKING PERCEPTION OF MALODOR” (Monell Chemical Senses Center, priority 2015, published 2018)
